Assays:
Assay type in all cases: in vivo
ZEA MAYS L. = assay: Postemergence herbicidal evaluation, ZEAMX (Corn, Field); details: for ZEAMX, herbicide rating (0-9): crop, rated four to five weeks after treatment, averaged
Outline: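 Corn seedlings were raised in jiffy flats for roughly two weeks, then sprayed postemergence with the test material dispersed in 50/50 acetone/water containing 0.5% TWEEN®20 surfactant, using a nozzle at 40 psi. Plants were kept on greenhouse benches under standard care and visually rated on a 0-9 scale four to five weeks after treatment.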

[1] = system: GLYCINE MAX(L) MERR. CV. WILLIAMS; assay: Postemergence herbicidal evaluation, GLXMAW (Soybean, Williams); set-up: key to GLXMAW rating / Herbicidal effect rating, GLXMAW / GLXMAW: 0-9 visual rating scale vs untreated control
Outline: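 Soybean seedlings (Williams) were raised in jiffy flats for roughly two weeks, then sprayed postemergence through a nozzle at 40 psi with test compound dispersed in 50/50 acetone/water containing 0.5% TWEEN®20. Treated plants were kept on greenhouse benches under normal care and visually rated on a 0-9 scale four to five weeks later.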

GALIUM APARINE = assay: Preemergence herbicidal evaluation, GALAP (Galium); details: four to five weeks after treatment
Outline: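 First, seeds in potting soil are sown atop soil in cups. Next, the surface is sprayed with test compound in aqueous acetone at roughly 0.125 to 0.50 kg per hectare. After four to five weeks of greenhouse care, each cup is scored 0-9 against a control.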

CYPERUS IRIA = assay: Preemergence weed control under flooded paddy conditions, CYPIR (Rice Flatsedge); details: preemergence weeds, rated three to four weeks after treatment
Outline: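 Seeds or propagating organs of rice flatsedge were planted in the top 0.5 cm of silt loam soil in 32 oz. plastic containers, 10.5 cm across and without drainage holes. Water was kept 1.5 to 3 cm above the soil throughout. Treated containers were kept on greenhouse benches, and herbicidal effect was visually rated on a 0-9 scale against a control.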

[…], PRESL. = Preemergence weed control under flooded paddy conditions, MOOVA (Monochoria); details: preemergence weeds, rated three to four weeks after treatment
Outline: (§1)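 Seeds or propagules sown in top 0.5 cm of silt loam in undrained containers, flooded 1.5 to 3 cm throughout. Compounds in aqueous/acetone 50/50 v/v pipetted into flood water at about 0.5, 0.25, 0.125 and 0.063 kg/ha. Visual 0-9 rating versus control after three to four weeks in greenhouse.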

[2] = system: ORYZA SATIVA, L. TEBONNET; assay: Postemergence herbicidal evaluation, ORYSAT (Rice, Tebonnet); set-up: key: 0-9 visual rating scale vs untreated control
Outline: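 Rice (Tebonnet) seedlings raised in jiffy flats for roughly two weeks were sprayed postemergence at 40 psi with compound dispersed in 50/50 acetone/water containing 0.5% TWEEN®20. The plants were then kept on greenhouse benches under standard care and visually scored on a 0-9 scale against a control four to five weeks after treatment.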

CASSIA OBTUSIFOLIA, L. = assay: Preemergence herbicidal evaluation, CASOB (Sicklepod); details: four to five weeks after treatment
Outline: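 Seeds of various monocot and dicot plants, including sicklepod, were each mixed with potting soil and sown on roughly one inch of soil in separate pint cups for preemergence testing. Treated cups were kept on greenhouse benches, watered and maintained conventionally. Four to five weeks after treatment, each cup was visually rated on a 0-9 scale against a control.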

[3] = system: ECHINOCHLOA ORYZOIDES (ARD.)FRITSCH; assay: Preemergence weed control under flooded paddy conditions, ECHORC (Watergrass (Calif.)); details: preemergence weeds, rated three to four weeks after treatment
Outline: as §1

SAGITTARIA PYGMAEA, L. = assay: Preemergence weed control under flooded paddy conditions, SAGPY (Arrowhead (Pygmaea)); details: for SAGPY: pre-weed; for SAGPY herbicidal rating: preemergence weeds, rated three to four weeks after treatment
Outline: as §1

| SMILES | Herbicidal effect rating, ZEAMX (ZEA MAYS L.; 0.063 kg/ha) | Herbicidal effect rating, ZEAMX (ZEA MAYS L.; 0.125 kg/ha) | Herbicidal effect rating, ZEAMX (ZEA MAYS L.; 0.250 kg/ha) | Herbicidal effect rating, GLXMAW ([1]; 0.063 kg/ha) | Herbicidal effect rating, GLXMAW ([1]; 0.125 kg/ha) | Herbicidal effect rating, GLXMAW ([1]; 0.250 kg/ha) | GALAP rating (GALIUM APARINE; Rate 0.125 kg/ha) | GALAP rating (GALIUM APARINE; Rate 0.250 kg/ha) | GALAP rating (GALIUM APARINE; Rate 0.500 kg/ha) | Herbicidal effect rating, ORYSAT ([2]; 0.063 kg/ha) | Herbicidal effect rating, ORYSAT ([2]; 0.125 kg/ha) | Herbicidal effect rating, ORYSAT ([2]; 0.250 kg/ha) | Herbicidal effect rating, ZEAMX (ZEA MAYS L.; 0.031 kg/ha) | Herbicidal effect rating, GLXMAW ([1]; 0.031 kg/ha) | Herbicidal effect rating, ORYSAT ([2]; 0.031 kg/ha) | further results |
| --- | --- | --- | --- | --- | --- | --- | --- | --- | --- | --- | --- | --- | --- | --- | --- | --- |
| COC(=O)Cn1c(=O)n(C)c(=O)n(-c2cc(Oc3c(F)cc(C(F)(F)F)cc3Cl)ccc2Br)c1=O [Compound 2, Methyl 3-{2-bromo-5-[(2-chloro-α,α,α,6-tetrafluoro-p-tolyl)oxy]phenyl}tetrahydro-5-methyl-2,4,6-trioxo-s-triazine-1(2H)-acetate] | 7.7 | 8.4 | 8.3 | 6.9 | 7.2 | 8.0 | 9.0 | 9.0 | 9.0 | 6.3 | 6.3 | 7.0 | – | – | – | Herbicidal effect rating, ZEAMX (ZEA MAYS L.; 0.500 kg/ha): 8.3; Herbicidal effect rating, GLXMAW ([1]; 0.500 kg/ha): 8.3; CYPIR herbicidal rating (CYPERUS IRIA; Rate 0.063 kg/ha): 9.0; CYPIR herbicidal rating (CYPERUS IRIA; Rate 0.125 kg/ha): 9.0; CYPIR herbicidal rating (CYPERUS IRIA; Rate 0.250 kg/ha): 9.0; CYPIR herbicidal rating (CYPERUS IRIA; Rate 0.500 kg/ha): 9.0; MOOVA herbicidal rating ([…], PRESL.; Rate 0.063 kg/ha): 9.0; MOOVA herbicidal rating ([…], PRESL.; Rate 0.125 kg/ha): 9.0; MOOVA herbicidal rating ([…], PRESL.; Rate 0.250 kg/ha): 9.0; MOOVA herbicidal rating ([…], PRESL.; Rate 0.500 kg/ha): 9.0; Herbicidal effect rating, ORYSAT ([2]; 0.500 kg/ha): 7.5; CASOB rating (CASSIA OBTUSIFOLIA, L.; Rate 0.125 kg/ha): 9.0; CASOB rating (CASSIA OBTUSIFOLIA, L.; Rate 0.250 kg/ha): 9.0; CASOB rating (CASSIA OBTUSIFOLIA, L.; Rate 0.500 kg/ha): 9.0; ECHORC herbicidal rating ([3]; Rate 0.063 kg/ha): 9.0; ECHORC herbicidal rating ([3]; Rate 0.125 kg/ha): 9.0; ECHORC herbicidal rating ([3]; Rate 0.250 kg/ha): 9.0; ECHORC herbicidal rating ([3]; Rate 0.500 kg/ha): 9.0 |
| COC(=O)Cn1c(=O)n(C)c(=O)n(-c2cc(Oc3ccc(C(F)(F)F)cc3Cl)ccc2[N+](=O)[O-])c1=O [Compound 3, Methyl 3-{5-[(2-chloro-α,α,α-trifluoro-p-tolyl)oxy]-2-nitrophenyl}tetrahydro-5-methyl-2,4,6-trioxo-s-triazine-1(2H)-acetate] | 4.8 | 5.8 | 6.9 | 5.3 | 5.9 | 6.3 | 7.3 | 8.4 | 9.0 | 5.1 | 5.7 | 6.6 | 4.6 | 4.8 | 4.9 | SAGPY (SAGITTARIA PYGMAEA, L.; Rate 0.031 kg/ha): 0.0; SAGPY (SAGITTARIA PYGMAEA, L.; Rate 0.063 kg/ha): 0.0; SAGPY (SAGITTARIA PYGMAEA, L.; Rate 0.125 kg/ha): 0.0; SAGPY (SAGITTARIA PYGMAEA, L.; Rate 0.250 kg/ha): 0.0; SAGPY herbicidal rating (SAGITTARIA PYGMAEA, L.; Rate 0.063 kg/ha): 0.0; SAGPY herbicidal rating (SAGITTARIA PYGMAEA, L.; Rate 0.125 kg/ha): 0.0; SAGPY herbicidal rating (SAGITTARIA PYGMAEA, L.; Rate 0.250 kg/ha): 0.0; SAGPY herbicidal rating (SAGITTARIA PYGMAEA, L.; Rate 0.500 kg/ha): 0.0 |
| COC(=O)Cn1c(=O)n(C)c(=O)n(-c2cc(Oc3c(F)cc(C(F)(F)F)cc3Cl)ccc2F)c1=O [Compound 4, Methyl 3-{5-[(2-chloro-α,α,α,6-tetrafluoro-p-tolyl)oxy]-2-fluorophenyl}tetrahydro-5-methyl-2,4,6-trioxo-s-triazine-1(2H)-acetate] | 8.7 | 8.9 | 8.9 | 5.7 | 6.4 | 7.3 | 7.3 | 9.0 | 9.0 | 5.0 | 5.7 | 6.4 | 8.1 | 5.1 | 4.6 | ZEAMX, herbicide rating (0-9) (ZEA MAYS L.; Rate 0.125 kg/ha): 8.8; ZEAMX, herbicide rating (0-9) (ZEA MAYS L.; Rate 0.250 kg/ha): 8.8; ZEAMX, herbicide rating (0-9) (ZEA MAYS L.; Rate 0.500 kg/ha): 8.8 |
